Test results taken from ChEMBL document CHEMBL1140450, “On-resin cyclization of peptide ligands of the Vascular Endothelial Growth Factor Receptor 1 by copper(I)-catalyzed 1,3-dipolar azide-alkyne cycloaddition” (Bioorg Med Chem Lett, 2007).
Non-standard residues stand in square brackets, D forms with d. Residues, ends and D or L forms follow the SMILES beside them. *: point of attachment. X2 = [N-]=[N+]=N[C@@H](CCCCN)C(=O)*; Pra = C#CC[C@H](N)C(=O)O

Molecular target: Vascular endothelial growth factor receptor 1 (Homo sapiens, UniProt P17948)
Test: Displacement of biotinylated VEGF165 from human recombinant VEGFR1

Vascular endothelial growth factor receptor 1, sequence (P17948 whole entry): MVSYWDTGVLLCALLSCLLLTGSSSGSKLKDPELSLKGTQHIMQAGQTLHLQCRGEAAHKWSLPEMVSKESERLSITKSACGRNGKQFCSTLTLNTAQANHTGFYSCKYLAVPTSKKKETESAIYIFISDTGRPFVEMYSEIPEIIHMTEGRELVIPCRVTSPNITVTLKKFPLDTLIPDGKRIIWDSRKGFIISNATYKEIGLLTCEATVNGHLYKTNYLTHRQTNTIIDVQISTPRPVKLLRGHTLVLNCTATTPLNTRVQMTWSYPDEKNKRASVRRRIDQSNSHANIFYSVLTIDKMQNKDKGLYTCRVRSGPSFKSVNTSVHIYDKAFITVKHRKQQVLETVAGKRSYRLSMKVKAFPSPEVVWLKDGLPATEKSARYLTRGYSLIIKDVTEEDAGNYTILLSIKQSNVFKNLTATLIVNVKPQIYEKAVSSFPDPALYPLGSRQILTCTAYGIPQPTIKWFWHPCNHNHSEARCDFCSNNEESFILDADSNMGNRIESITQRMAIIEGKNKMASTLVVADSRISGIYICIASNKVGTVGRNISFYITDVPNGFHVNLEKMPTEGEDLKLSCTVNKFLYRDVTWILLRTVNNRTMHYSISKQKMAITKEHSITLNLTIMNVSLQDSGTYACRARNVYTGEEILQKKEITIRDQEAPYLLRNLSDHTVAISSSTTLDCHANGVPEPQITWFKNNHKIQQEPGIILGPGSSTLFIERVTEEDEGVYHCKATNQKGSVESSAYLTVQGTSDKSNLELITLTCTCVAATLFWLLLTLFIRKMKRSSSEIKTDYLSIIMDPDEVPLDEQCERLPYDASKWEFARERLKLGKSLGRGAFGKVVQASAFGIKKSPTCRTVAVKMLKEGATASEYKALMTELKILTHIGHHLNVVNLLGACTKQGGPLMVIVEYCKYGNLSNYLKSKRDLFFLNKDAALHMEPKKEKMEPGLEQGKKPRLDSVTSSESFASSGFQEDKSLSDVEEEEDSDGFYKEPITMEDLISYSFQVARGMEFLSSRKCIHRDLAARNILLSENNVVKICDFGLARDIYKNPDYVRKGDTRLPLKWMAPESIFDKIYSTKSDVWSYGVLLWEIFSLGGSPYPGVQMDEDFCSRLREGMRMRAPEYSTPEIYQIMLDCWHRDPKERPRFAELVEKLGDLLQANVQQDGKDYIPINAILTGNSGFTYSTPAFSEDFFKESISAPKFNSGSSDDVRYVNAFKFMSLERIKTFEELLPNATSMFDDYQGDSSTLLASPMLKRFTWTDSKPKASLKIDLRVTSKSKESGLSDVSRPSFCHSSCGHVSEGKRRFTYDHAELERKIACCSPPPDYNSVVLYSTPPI

IC50 | Structure (SMILES)
121 µM | CSCC[C@@H]1NC(=O)[C@H](CCC(N)=O)NC(=O)[C@H](Cc2cnc[nH]2)NC(=O)Cn2cc(nn2)C[C@@H](C(N)=O)NC(=O)[C@H](Cc2ccc(O)cc2)NC(=O)[C@H](Cc2ccc(O)cc2)NC(=O)[C@H](Cc2ccccc2)NC1=O
151 µM | C#CC[C@H](NC(=O)[C@H](CCC(=O)O)NC(=O)[C@H](CC(C)C)NC(=O)[C@@H]1CCCN1C(=O)[C@H](CCC(=O)O)NC(=O)[C@H](CC(=O)O)NC(=O)[C@H](Cc1ccc(O)cc1)NC(=O)[C@H](CCCCN)N=[N+]=[N-])C(N)=O (X2-YDEPLE[Pra]-NH2)
